ChEMBL document CHEMBL1201862, “PubChem BioAssay data set” (2004)
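Step 1: Grow cells in 96-well plates. Step 2: Expose to compound for 48 hours at 5 concentrations. Step 3: Interpolate endpoints linearly; if unreached, use highest concentration. GI50 marks 50% less growth.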 Calls of active or inactive are those of the source. Cut-off read from the data, not from the text of the source: active = GI50 up to about 1.1 µM and inactive = higher.

What was measured:
Test in all cases: NCI anticancer screen, dose series, 48 h
OVCAR-5 = system: OVCAR-5
TK-10 = system: TK-10
SF-268 = system: SF-268
HCT-15 = system: HCT-15
MOLT-4 = system: MOLT-4
IGROV-1 = system: IGROV-1
BT-549 = system: BT-549
SNB-75 = system: SNB-75
UO-31 = system: UO-31
OVCAR-3 = system: OVCAR-3
KM12 = system: KM12
HT-29 = system: HT-29
NCI/ADR-RES = system: NCI/ADR-RES
MDA-MB-435 = system: MDA-MB-435
U-251 = system: U-251
SK-OV-3 = system: SK-OV-3
A549 = system: A549
786-0 = system: 786-0
CAKI-1 = system: CAKI-1
MCF7 = system: MCF7
COLO 205 = system: COLO 205
ACHN = system: ACHN
SK-MEL-2 = system: SK-MEL-2
SW-620 = system: SW-620
PC-3 = system: PC-3
OVCAR-4 = system: OVCAR-4
RXF 393 = system: RXF 393
SF-295 = system: SF-295
SN12C = system: SN12C
HL-60 = system: HL-60
NCI-H226 = system: NCI-H226
EKVX = system: EKVX
SK-MEL-28 = system: SK-MEL-28
K562 = system: K562
OVCAR-8 = system: OVCAR-8
CCRF-CEM = system: CCRF-CEM
DU-145 = system: DU-145
Malme-3M = system: Malme-3M
NCI-H23 = system: NCI-H23
HCT-116 = system: HCT-116
SNB-19 = system: SNB-19
RPMI-8226 = system: RPMI-8226
NCI-H522 = system: NCI-H522
HOP-62 = system: HOP-62
T47D = system: T47D
HCC 2998 = system: HCC 2998
NCI-H460 = system: NCI-H460
SK-MEL-5 = system: SK-MEL-5
MDA-MB-231 = system: MDA-MB-231
Hs-578T = system: Hs-578T
M14 = system: M14
MDA-N = system: MDA-N
UACC-257 = system: UACC-257
UACC-62 = system: UACC-62
A498 = system: A498
LOX IMVI = system: LOX IMVI
SF-539 = system: SF-539
SR = system: SR

Measured: GI50

[O-][S+](c1ccc(Cl)cc1)c1ccccc1C1=NCCN1 (centres undefined)
inactive: OVCAR-5 > 100 µM | TK-10 > 100 µM | SF-268 > 100 µM | MOLT-4 > 100 µM | IGROV-1 > 100 µM | BT-549 > 100 µM | SNB-75 > 100 µM | UO-31 > 100 µM | OVCAR-3 > 100 µM | KM12 > 100 µM | HT-29 > 100 µM | NCI/ADR-RES > 100 µM | MDA-MB-435 > 100 µM | U-251 > 100 µM | SK-OV-3 > 100 µM | A549 > 100 µM | 786-0 > 100 µM | CAKI-1 > 100 µM | MCF7 > 100 µM | COLO 205 > 100 µM | ACHN > 100 µM | SK-MEL-2 > 100 µM | SW-620 > 100 µM | PC-3 > 100 µM | OVCAR-4 > 100 µM | RXF 393 > 100 µM | SF-295 > 100 µM | SN12C > 100 µM | HL-60 > 100 µM | NCI-H226 > 100 µM | EKVX > 100 µM | SK-MEL-28 > 100 µM | K562 > 100 µM | OVCAR-8 > 100 µM | CCRF-CEM > 100 µM | DU-145 > 100 µM | Malme-3M > 100 µM | NCI-H23 > 100 µM | HCT-116 > 100 µM | SNB-19 > 100 µM | RPMI-8226 > 100 µM | NCI-H522 > 100 µM | HOP-62 > 100 µM | T47D > 100 µM | HCC 2998 > 100 µM | NCI-H460 > 100 µM | SK-MEL-5 > 100 µM | MDA-MB-231 > 100 µM | Hs-578T > 100 µM | M14 > 100 µM | MDA-N > 100 µM | UACC-257 > 100 µM | UACC-62 > 100 µM
> 100 µM: HCT-15

C/C=C1\CC(C(=O)OCC)CCCCCCC1=O (centres undefined)
inactive: OVCAR-5 > 100 µM | TK-10 > 100 µM | SF-268 > 100 µM | MOLT-4 > 100 µM | IGROV-1 > 100 µM | BT-549 > 100 µM | SNB-75 69 µM | UO-31 > 100 µM | KM12 > 100 µM | HT-29 > 100 µM | NCI/ADR-RES > 100 µM | MDA-MB-435 > 100 µM | U-251 > 100 µM | SK-OV-3 > 100 µM | A549 > 100 µM | 786-0 > 100 µM | A498 > 100 µM | CAKI-1 > 100 µM | MCF7 > 100 µM | COLO 205 > 100 µM | ACHN > 100 µM | SK-MEL-2 > 100 µM | SW-620 > 100 µM | PC-3 > 100 µM | OVCAR-4 > 100 µM | RXF 393 > 100 µM | SF-295 > 100 µM | SN12C > 100 µM | HL-60 51.1 µM | NCI-H226 > 100 µM | EKVX > 100 µM | SK-MEL-28 > 100 µM | OVCAR-8 > 100 µM | CCRF-CEM 19.1 µM | DU-145 > 100 µM | Malme-3M > 100 µM | NCI-H23 > 100 µM | HCT-116 > 100 µM | SNB-19 > 100 µM | NCI-H522 99.8 µM | HOP-62 > 100 µM | T47D > 100 µM | SK-MEL-5 > 100 µM | MDA-MB-231 > 100 µM | Hs-578T > 100 µM | M14 > 100 µM | LOX IMVI > 100 µM | SF-539 > 100 µM | MDA-N > 100 µM | UACC-257 > 100 µM | UACC-62 59.2 µM
> 100 µM: HCT-15

COCCNc1cncc(C(N)=O)c1
> 100 µM: HCT-15
inactive: OVCAR-5 > 100 µM | TK-10 > 100 µM | SF-268 > 100 µM | MOLT-4 > 100 µM | IGROV-1 > 100 µM | BT-549 > 100 µM | SNB-75 87.9 µM | SR > 100 µM | UO-31 > 100 µM | OVCAR-3 > 100 µM | KM12 > 100 µM | HT-29 > 100 µM | NCI/ADR-RES > 100 µM | U-251 > 100 µM | SK-OV-3 > 100 µM | A549 > 100 µM | 786-0 > 100 µM | A498 > 100 µM | CAKI-1 > 100 µM | MCF7 > 100 µM | COLO 205 > 100 µM | ACHN > 100 µM | SK-MEL-2 > 100 µM | SW-620 > 100 µM | PC-3 > 100 µM | OVCAR-4 > 100 µM | SF-295 > 100 µM | SN12C > 100 µM | HL-60 > 100 µM | NCI-H226 > 100 µM | EKVX > 100 µM | SK-MEL-28 > 100 µM | K562 > 100 µM | OVCAR-8 > 100 µM | CCRF-CEM > 100 µM | DU-145 > 100 µM | NCI-H23 > 100 µM | HCT-116 > 100 µM | SNB-19 > 100 µM | NCI-H522 > 100 µM | HOP-62 > 100 µM | T47D 65.6 µM | HCC 2998 > 100 µM | NCI-H460 > 100 µM | SK-MEL-5 > 100 µM | MDA-MB-231 > 100 µM | Hs-578T > 100 µM | M14 > 100 µM | SF-539 > 100 µM | MDA-N > 100 µM | UACC-257 > 100 µM | UACC-62 > 100 µM

COCN1C(=O)[C@@H]2CCCN2C(=O)c2cc(OC)c(Cc3ccccc3)cc21
> 100 µM: HCT-15
inactive: OVCAR-5 > 100 µM | TK-10 > 100 µM | SF-268 > 100 µM | IGROV-1 62.7 µM | BT-549 81.8 µM | SNB-75 60.4 µM | UO-31 57 µM | KM12 > 100 µM | HT-29 93.3 µM | NCI/ADR-RES > 100 µM | MDA-MB-435 70.1 µM | U-251 94.6 µM | SK-OV-3 > 100 µM | A549 83.6 µM | 786-0 > 100 µM | A498 > 100 µM | CAKI-1 > 100 µM | MCF7 61.5 µM | ACHN > 100 µM | SK-MEL-2 > 100 µM | SW-620 > 100 µM | PC-3 74.5 µM | OVCAR-4 43.7 µM | RXF 393 34.3 µM | SF-295 > 100 µM | SN12C > 100 µM | EKVX > 100 µM | SK-MEL-28 > 100 µM | OVCAR-8 > 100 µM | DU-145 > 100 µM | Malme-3M > 100 µM | NCI-H23 > 100 µM | HCT-116 62.4 µM | SNB-19 > 100 µM | NCI-H522 83.9 µM | HOP-62 > 100 µM | T47D 43.3 µM | MDA-MB-231 49.5 µM | Hs-578T > 100 µM | M14 > 100 µM | LOX IMVI > 100 µM | SF-539 > 100 µM | MDA-N > 100 µM | UACC-257 > 100 µM | UACC-62 > 100 µM

COC(=O)CNC(=O)Nc1cc(N2C(=O)ON3C2C(C)(C)N(O)C3(C)C)ccc1C (centres undefined)
inactive: OVCAR-5 > 100 µM | TK-10 > 100 µM | SF-268 > 100 µM | MOLT-4 > 100 µM | IGROV-1 > 100 µM | BT-549 > 100 µM | SNB-75 > 100 µM | SR > 100 µM | UO-31 > 100 µM | OVCAR-3 > 100 µM | KM12 > 100 µM | HT-29 > 100 µM | NCI/ADR-RES > 100 µM | MDA-MB-435 > 100 µM | U-251 > 100 µM | SK-OV-3 > 100 µM | A549 > 100 µM | 786-0 > 100 µM | CAKI-1 > 100 µM | MCF7 > 100 µM | COLO 205 > 100 µM | ACHN > 100 µM | SK-MEL-2 59.4 µM | SW-620 > 100 µM | PC-3 > 100 µM | OVCAR-4 > 100 µM | RXF 393 > 100 µM | SF-295 55 µM | SN12C > 100 µM | NCI-H226 > 100 µM | EKVX > 100 µM | SK-MEL-28 > 100 µM | K562 > 100 µM | OVCAR-8 > 100 µM | CCRF-CEM > 100 µM | Malme-3M > 100 µM | NCI-H23 > 100 µM | HCT-116 > 100 µM | SNB-19 > 100 µM | NCI-H522 > 100 µM | HOP-62 > 100 µM | T47D > 100 µM | HCC 2998 > 100 µM | NCI-H460 > 100 µM | SK-MEL-5 > 100 µM | MDA-MB-231 > 100 µM | Hs-578T > 100 µM | M14 > 100 µM | LOX IMVI > 100 µM | SF-539 > 100 µM | MDA-N > 100 µM | UACC-257 > 100 µM | UACC-62 > 100 µM
66.5 µM: HCT-15
